Measurements as given in PubChem BioAssay AID1963963 (Molecular Pharmacology Branch, DTP, NCI, 2024).

Test system: 958667-338-R-J2-PDC tumor spheroids viability
Experiment: Anticancer human tumor 958667-338-R-J2-PDC patient-derived colon adenocarcinoma cell line growth inhibition [PI3K]
Conditions: spheroids with HUVEC and MSC; for IC50: curve of first compound; for viability, T/C: stronger effect = lower value
Source text: Combinatorial screen of targeted agents with the PI3K inhibitors inavolisib, alpelisib, duvelisib, and copanlisib in multi-cell type tumor spheroids
A high-throughput screen of multi-cell type tumor spheroids was designed to identify active combinations of targeted small molecules and PI3K pathway inhibitors. Complex spheroids include a stromal component modeled by human endothelial cells (HUVEC) and fibroblasts modeled by human mesenchymal stem cells (MSCs). The concentration ranges selected for each drug and investigational agent were based upon clinically achievable concentrations if the clinical Cmax of the agent was known.
Compounds. The drugs and investigational agents: inavolisib (NSC800729), alpelisib (NSC765974), duvelisib (NSC772469), copanlisib (NSC816437), ipatasertib (NSC767898), afuresertib (NSC778305), talazoparib (NSC767125), sapanisertib (NSC764658), selumetinib (NSC741078), tovorafenib (DAY101, NSC766906), vemurafenib (NSC761431), ravoxertinib (NSC781343), sotorasib (NSC818433), MRTX1133 (NSC 836407), abemaciclib (NSC 768073), palbociclib (NSC758247), venetoclax (NSC 766270), SY5609 (NSC837396), enzalutamide (NSC755605), and darolutamide (NSC825331), were obtained from the National Cancer Institute (NCI) Developmental Therapeutics Program Chemical Repository. The FDA-approved anticancer drug set is available from the NCI Developmental Therapeutics Program. […] The stock solutions were prepared in dimethyl sulfoxide (DMSO, Sigma-Aldrich, St. Louis, MO, cat. D2650) at 800-fold the tested concentration and stored at -70 degrees C prior to their use. All drugs and investigational agents were tested over a range starting from a high concentration at or near the clinical Cmax and decreasing in half-log increments. If the clinical Cmax for an agent had not been determined, the highest concentration tested was 10 microM.
Cell Culture. All cells were maintained in an incubator at 37 degrees C and 5% CO2 with 95% humidity. The PDC lines were cultured according to standard operating procedures established by the NCI PDMR (https://pdmr.cancer.gov/sops/default.htm). All PDCs were thawed and cultured in Matrigel-coated flasks prepared with a working solution of 1X Ham's F-12 nutrient mix, without supplementation (Invitrogen, Waltham, MA, cat. 11765054), 100 U/mL penicillin-streptomycin (Invitrogen, cat. 15140122), and 2.5% Matrigel (Corning Inc., Corning, NY, cat. 354248) for the first three passages. The 354836-022-R-J1-PDC, 475296-252-R-J1-PDC, and 997726-040-R-J2-PDC lines were cultured in 6A media, which includes advanced DMEM/F-12 (Thermo Fisher Scientific, cat. 12634028), 10 mM HEPES (Thermo Fisher Scientific, cat. 15630080), 1X GlutaMAX supplement (Thermo Fisher Scientific, cat. 35050061), 0.1 mg/mL primocin (InvivoGen, San Diego, CA, cat. ant-pm-2), 10% defined fetal bovine serum, heat inactivated (HyClone Laboratories Inc., Logan, UT, cat. SH30070.03HI), 50% L-WRN conditioned media (ATCC, cat. CRL-3276), 1.25 mM N-Acetyl-L-cysteine (Sigma-Aldrich, cat. A9165), 10 mM nicotinamide (Sigma-Aldrich, cat. N0636), 1X B-27 supplement (Thermo Fisher Scientific, cat. 17504044), 1X N-2 supplement (Thermo Fisher Scientific, cat. 17502048), and 10 microM Y-27632 dihydrochloride (Tocris Bioscience, Bristol, United Kingdom, cat. 1254). The 624824-186-R-J2-PDC line was cultured in 6C/Colon 1B media, which includes all 6A media components plus 50 ng/mL human EGF recombinant protein (Thermo Fisher Scientific, cat. PHG0311). […]
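Note: spheroids exposed to compounds for seven days before readout.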

Question: With `CCCS(=O)(=O)Nc1ccc(F)c(C(=O)c2c[nH]c3ncc(-c4ccc(Cl)cc4)cc23)c1F` + CC(Nc1ncnc2nc[nH]c12)c1cc2cccc(Cl)c2c(=O)n1-c1ccccc1 as the compound, how does the IC50 (second compound 0.0316 µM) read?
Answer: Its IC50 is 7.99 µM.

Question: And the IC50 (second compound 0.1 µM)?
Answer: Its IC50 is 6.5 µM.

Question: And the IC50 (second compound 0.316 µM)?
Answer: The IC50 was 6.36 µM.

Question: And the IC50 (second compound 1 µM)?
Answer: Its IC50 is 6.31 µM.

Question: And the IC50 (second compound 3.16 µM)?
Answer: Its IC50 is 6.66 µM.

Question: And the IC50 (second compound 10 µM)?
Answer: Its IC50 is 6.18 µM.

Question: What about the viability, T/C (second compound 0.0316 µM, first compound 0.0316 µM) of the same compound?
Answer: Its viability, T/C is 121%.

Question: And the viability, T/C (second compound 0.0316 µM, first compound 0.1 µM)?
Answer: The viability, T/C was 97.5%.

Question: And the viability, T/C (second compound 0.0316 µM, first compound 0.316 µM)?
Answer: The viability, T/C was 99.8%.

Question: What about the viability, T/C (second compound 0.0316 µM, first compound 1 µM) of the same compound?
Answer: The viability, T/C was 116%.

Question: What about the viability, T/C (second compound 0.0316 µM, first compound 3.16 µM) of the same compound?
Answer: The viability, T/C was 131%.

Question: What about the viability, T/C (second compound 0.0316 µM, first compound 10 µM) of the same compound?
Answer: The viability, T/C was 34.7%.

Question: And the viability, T/C (second compound 0.1 µM, first compound 0.0316 µM)?
Answer: Its viability, T/C is 95.8%.

Question: And the viability, T/C (second compound 0.1 µM, first compound 0.1 µM)?
Answer: Its viability, T/C is 91.7%.

Question: And the viability, T/C (second compound 0.1 µM, first compound 0.316 µM)?
Answer: The viability, T/C was 101%.

Question: And the viability, T/C (second compound 0.1 µM, first compound 1 µM)?
Answer: The viability, T/C was 99.9%.

Question: And the viability, T/C (second compound 0.1 µM, first compound 3.16 µM)?
Answer: The viability, T/C was 133%.

Question: And the viability, T/C (second compound 0.1 µM, first compound 10 µM)?
Answer: Its viability, T/C is 17.6%.

Question: What about the viability, T/C (second compound 0.316 µM, first compound 0.0316 µM) of the same compound?
Answer: The viability, T/C was 82.2%.

Question: And the viability, T/C (second compound 0.316 µM, first compound 0.1 µM)?
Answer: Its viability, T/C is 79.8%.

Question: And the viability, T/C (second compound 0.316 µM, first compound 0.316 µM)?
Answer: Its viability, T/C is 92.4%.

Question: And the viability, T/C (second compound 0.316 µM, first compound 1 µM)?
Answer: The viability, T/C was 104%.

Question: What about the viability, T/C (second compound 0.316 µM, first compound 3.16 µM) of the same compound?
Answer: The viability, T/C was 134%.

Question: And the viability, T/C (second compound 0.316 µM, first compound 10 µM)?
Answer: Its viability, T/C is 18.5%.

Question: What about the viability, T/C (second compound 1 µM, first compound 0.0316 µM) of the same compound?
Answer: Its viability, T/C is 102%.

Question: What about the viability, T/C (second compound 1 µM, first compound 0.1 µM) of the same compound?
Answer: The viability, T/C was 107%.

Question: And the viability, T/C (second compound 1 µM, first compound 0.316 µM)?
Answer: The viability, T/C was 121%.

Question: What about the viability, T/C (second compound 1 µM, first compound 1 µM) of the same compound?
Answer: Its viability, T/C is 89.5%.

Question: What about the viability, T/C (second compound 1 µM, first compound 3.16 µM) of the same compound?
Answer: Its viability, T/C is 101%.

Question: And the viability, T/C (second compound 1 µM, first compound 10 µM)?
Answer: The viability, T/C was 16.6%.

Question: What about the viability, T/C (second compound 3.16 µM, first compound 0.0316 µM) of the same compound?
Answer: Its viability, T/C is 121%.

Question: And the viability, T/C (second compound 3.16 µM, first compound 0.1 µM)?
Answer: Its viability, T/C is 119%.

Question: What about the viability, T/C (second compound 3.16 µM, first compound 0.316 µM) of the same compound?
Answer: The viability, T/C was 83.4%.

Question: And the viability, T/C (second compound 3.16 µM, first compound 1 µM)?
Answer: Its viability, T/C is 116%.

Question: And the viability, T/C (second compound 3.16 µM, first compound 3.16 µM)?
Answer: The viability, T/C was 117%.

Question: What about the viability, T/C (second compound 3.16 µM, first compound 10 µM) of the same compound?
Answer: The viability, T/C was 16.2%.

Question: And the viability, T/C (second compound 10 µM, first compound 0.0316 µM)?
Answer: The viability, T/C was 79.5%.

Question: And the viability, T/C (second compound 10 µM, first compound 0.1 µM)?
Answer: The viability, T/C was 99%.

Question: And the viability, T/C (second compound 10 µM, first compound 0.316 µM)?
Answer: The viability, T/C was 103%.

Question: What about the viability, T/C (second compound 10 µM, first compound 1 µM) of the same compound?
Answer: The viability, T/C was 91.9%.

Question: What about the viability, T/C (second compound 10 µM, first compound 3.16 µM) of the same compound?
Answer: The viability, T/C was 99.6%.

Question: What about the viability, T/C (second compound 10 µM, first compound 10 µM) of the same compound?
Answer: Its viability, T/C is 17.9%.
